ChEMBL document CHEMBL1126536, “Synthesis and antimalarial evaluation of 2,3,5-trioxabicyclo[2.2.3]nonane, a model for the putative pharmacophore of artemisinin” (Bioorg Med Chem Lett, 1993)
Converted amounts (≈) assume the structure as drawn.

What was measured:
[1] = tested on: Plasmodium falciparum; test: (§1) Inhibitory concentration against chloroquine-sensitive Plasmodium falciparum D-8; assay type: functional, organism-based
[2] = tested on: Plasmodium falciparum; test: as §1; assay type: functional
[3] = tested on: Plasmodium falciparum; test: (§2) Inhibitory concentration against […] Plasmodium falciparum W-2; assay type: functional
[4] = tested on: Plasmodium falciparum; test: as §2; assay type: functional, organism-based
[5] = tested on: Plasmodium falciparum; test: Inhibitory concentration against […] Plasmodium falciparum W2; assay type: functional
[6] = Plasmodium falciparum, read-out: IC50
[7] = Plasmodium falciparum, read-out: IC10
[8] = Plasmodium falciparum, read-out: IC90

In the case of `C1CC2COC(C1)OO2` (stereo unspecified), the IC50 [1, 6] is reported as 2.45 µg/mL (≈ 18.8 µM), the IC10 [2, 7] is reported as 1340 ng/mL (≈ 10.3 µM) and the IC90 [2, 8] is reported as 4.47 µg/mL (≈ 34.3 µM).
Work on `COC1CCCC(OO)CO1` (single isomer, unassigned; isomer A) yielded an IC50 [1, 6] of 7.49 µg/mL (≈ 46.2 µM), an IC10 [3] of 3.33249 µg/mL (≈ 20.5 µM) and an IC10 [2, 7] of 2460 ng/mL (≈ 15.2 µM). For the same molecule, the IC90 [2, 8] was 22.8 µg/mL (≈ 141 µM), the IC50 [4] was 6524.88 ng/mL (≈ 40.2 µM) and the IC90 [5, 8] was 12.8 µg/mL (≈ 78.8 µM).
`COC1CCCC(OO)CO1` (stereo in doubt) gave an IC50 [1] of 10.0532 µg/mL (≈ 62 µM), an IC10 [3] of 11.4131 µg/mL (≈ 70.4 µM) and an IC10 [2] of 2653.75 ng/mL (≈ 16.4 µM). It also gave an IC90 [2] of 38.08448 µg/mL (≈ 235 µM), an IC50 [4] of 15456.81 ng/mL (≈ 95.3 µM) and an IC90 [5] of 20.93322 µg/mL (≈ 129 µM).
`C[C@@H]1CC[C@H]2[C@@H](C)C(=O)O[C@@H]3O[C@@]4(C)CC[C@@H]1[C@]32OO4` [ARTEMISININ] was tested, and the IC50 [1, 6] was 0.00083 µg/mL (≈ 0.00294 µM), the IC10 [3, 7] was 0.00049 µg/mL (≈ 0.00174 µM) and the IC10 [2, 7] was 0.32 ng/mL (≈ 0.00113 µM). The IC90 [2, 8] was 0.00213 µg/mL (≈ 0.00754 µM), the IC50 [4, 6] was 0.72 ng/mL (≈ 0.00255 µM) and the IC90 [5, 8] was 0.00105 µg/mL (≈ 0.00372 µM).
`CCN(CC)CCCC(C)Nc1ccnc2cc(Cl)ccc12` (stereo unspecified) [CHLOROQUINE] gave an IC10 [3, 7] of 0.0527 µg/mL (≈ 0.165 µM), an IC10 [2, 7] of 2.01 ng/mL (≈ 0.00628 µM) and an IC90 [2, 8] of 0.00361 µg/mL (≈ 0.0113 µM). For the same molecule, the IC90 [5, 8] was 0.0931 µg/mL (≈ 0.291 µM).
Work on `OC(c1cc(C(F)(F)F)nc2c(C(F)(F)F)cccc12)C1CCCCN1` (stereo unspecified) [MEFLOQUINE] yielded an IC50 [1, 6] of 0.00686 µg/mL (≈ 0.0181 µM), an IC10 [3, 7] of 0.00117 µg/mL (≈ 0.00309 µM) and an IC10 [2, 7] of 1.22 ng/mL (≈ 0.00322 µM). For the same molecule, the IC90 [2, 8] was 0.0385 µg/mL (≈ 0.102 µM), the IC50 [4, 6] was 2.09 ng/mL (≈ 0.00552 µM) and the IC90 [5, 8] was 0.00373 µg/mL (≈ 0.00986 µM).
